Earlier results on 1 molecule are cited in PMC10379611 (International Journal of Molecular Sciences, 2023).

The structures appear in SMILES notation.

For the series the following is noted: recommended clinical dose of Paxlovid; cited from earlier work.

Take `CC(C)c1nc(CN(C)C(=O)N[C@H](C(=O)N[C@@H](Cc2ccccc2)C[C@H](O)[C@H](Cc2ccccc2)NC(=O)OCc2cncs2)C(C)C)cs1` [Ritonavir]: the observed plasma concentrations is 0.5 µM.
